The first assay relates to M5076 cells. Put plainly: Antitumor test in mice inoculated subcutaneously with M5076 cells (tumor size, T/C). The class given is in vivo, C57BL/6 mice. The note with it: 20 mg/kg, subcutaneous, 10 times in total; tumor size after 13 days. On the procedure: C57BL/6 mice (a group consisting of 6 mice) were inoculated subcutaneously at the dorsolateral area with 2×10^6 M5076 cells, and then a test compound dissolved in a 5% gum arabic physiological saline solution was subcutaneously administered 10 times in total, i.e. 1st, 2nd, 4th, 5th, 6th, 7th, 8th, 9th, 11th and 12th day after the inoculation. After 13 days, the major axis (a) and the minor axis (b) of the tumor tissue were measured to determine the tumor size by the calculation formula of a×b^2 ×1/2. The ratio of the tumor size thus calculated to the tumor size of animals in the control group was shown by T/C (%).
On to `CO[C@@H]1[C@H](OC(=O)NC(=O)CCl)CC[C@](O)(C[S+](C)Cc2cccc(Br)c2)[C@H]1[C@@]1(C)O[C@@H]1CC=C(C)C` (single isomer, unassigned) [Example 65A, 1-(3-bromobenzyl)methylsulfoniomethyl-4-(N-chloroacetylcarbamoyloxy)-2-(1,2-epoxy-1,5-dimethyl-4-hexenyl)-3-methoxycyclohexanol bromide], for which the “T/C (%) (ratio of tumor size to control group)” value is 9%. As for `CO[C@@H]1[C@H](OC(=O)NC(=O)CCl)CC[C@](O)(C[S+](C)Cc2cccc(Br)c2)[C@H]1[C@@]1(C)O[C@@H]1CC=C(C)C` (single isomer, unassigned) [Example 65B, 1-(3-bromobenzyl)methylsulfoniomethyl-4-(N-chloroacetylcarbamoyloxy)-2-(1,2-epoxy-1,5-dimethyl-4-hexenyl)-3-methoxycyclohexanol bromide], the “T/C (%) (ratio of tumor size to control group)” value turned out to be 37%.

In the case of “4-(N'-chloroacetylureido)-2-(1,2-epoxy-1,5-dimethyl-4-hexenyl)-1-(1,3-dihydrobenzo[c]thiophen-2-ylio)methyl-3-methoxycyclohexanol chloride [Example 100]”, the “T/C (%) (ratio of tumor size to control group)” value was 22%.

The assay is the same for the next values; noted with them: Mus musculus, M5076, sc, 312 h, 20 mg/kg, subcutaneous, 10 times in total; tumor size after 13 days; read-out: T/C (%) (ratio of tumor size to control group).
In the case of `CO[C@@H]1[C@H](OC(=O)NC(=O)CCl)CC[C@](O)(C[S+](C)Cc2cccc(Br)c2)[C@H]1[C@@]1(C)O[C@@H]1CC=C(C)C` (some centres unmarked) [Example 64, 1-(3-Bromobenzyl)methylsulfoniomethyl-4-(N-chloroacetylcarbamoyloxy)-2-(1,2-epoxy-1,5-dimethyl-4-hexenyl)-3-methoxycyclohexanol bromide], the response vs control in vivo at 20 mg/kg came to 24%. Turning to `CO[C@@H]1[C@H](OC(=O)NC(=O)CCl)CC[C@](O)(C[S+]2Cc3ccccc3C2)[C@H]1[C@@]1(C)O[C@@H]1CC=C(C)C` [Example 82, 4-(N-Chloroacetylcarbamoyloxy)-2-(1,2-epoxy-1,5-dimethyl-4-hexenyl)-1-(1,3-dihydrobenzo[c]thiophen-2-ylio)methyl-3-methoxycyclohexanol chloride], the response vs control in vivo at 20 mg/kg worked out at 9%. Still for that read-out and setting: the result for `CO[C@@H]1[C@H](OC(=O)NC(=O)CCl)CC[C@](O)(C[S+](C)Cc2ccc(Cl)cc2)[C@H]1[C@@]1(C)O[C@@H]1CC=C(C)C` (some centres unmarked) [Example 61, 4-(N-Chloroacetylcarbamoyloxy)-1-(4-chlorobenzyl)methylsulfoniomethyl-2-(1,2-epoxy-1,5-dimethyl-4-hexenyl)-3-methoxycyclohexanol bromide] reads 27%. As for `CO[C@@H]1[C@H](OC(=O)NC(=O)CCl)CC[C@](O)(C[S+](C)Cc2ccc(F)cc2)[C@H]1[C@@]1(C)O[C@@H]1CC=C(C)C` (some centres unmarked) [Example 62, 4-(N-Chloroacetylcarbamoyloxy)-2-(1,2-epoxy-1,5-dimethyl-4-hexenyl)-1-(4-fluorobenzyl)methylsulfoniomethyl-3-methoxycyclohexanol bromide], the response vs control in vivo at 20 mg/kg amounted to 29%. The same measure, in the same setting: as for `CO[C@@H]1[C@H](OC(=O)NC(=O)CCl)CC[C@](O)(C[S+](C)Cc2ccccc2)[C@H]1[C@@]1(C)O[C@@H]1CC=C(C)C` (stereo partly drawn) [Example 76, 1-Benzylmethylsulfoniomethyl-4-chloroacetylcarbamoyloxy-2-(1,2-epoxy-1,5-dimethyl-4-hexenyl)-3-methoxycyclohexanol hydrogen L-tartrate], the figure is 29%. For the compound `CO[C@@H]1[C@H](OC(=O)NC(=O)CCl)CC[C@](O)(C[S+]2CC3CC=CCC3C2)[C@H]1[C@@]1(C)O[C@@H]1CC=C(C)C` (some centres unmarked) [Example 104, 4-(N-chloroacetylcarbamoyloxy)-2-(1,2-epoxy-1,5-dimethyl-4-hexenyl)-1-(1,3,3a,4,7,7ahexahydrobenzo[c]thiophen-2-ylio)methyl-3-methoxycyclohexanol chloride], the response vs control in vivo at 20 mg/kg came to 16%. Still for that read-out and setting: as for `CO[C@@H]1[C@H](OC(=O)NC(=O)CCl)CC[C@](O)(C[S+](C)Cc2ccc(Br)cc2)[C@H]1[C@@]1(C)O[C@@H]1CC=C(C)C` (some centres unmarked) [Example 60, 1-(4-Bromobenzyl)methylsulfoniomethyl-4-(N-chloroacetylcarbamoyloxy)-2-(1,2-epoxy-1,5-dimethyl-4-hexenyl)-3-methoxycyclohexanol bromide], the figure is 21%.

Staying with this assay, now noted: Mus musculus, M5076, sc, 312 h, 30 mg/kg, subcutaneous, 10 times in total; tumor size after 13 days; read-out: T/C (%) (ratio of tumor size to control group).
Regarding `C#CC[S+](C)C[C@@]1(O)CC[C@@H](OC(=O)NC(=O)CCl)[C@@H](OC)[C@@H]1[C@@]1(C)O[C@@H]1CC=C(C)C` (some centres unmarked) [Example 17, 4-O-(Chloroacetylcarbamoyl)-2-(1,2-epoxy-1,5-dimethyl-4-hexenyl)-3-methoxy-1-(2-propinyl)-methylsulfoniomethyl-1,4-cyclohexanediol bromide], the response vs control in vivo at 30 mg/kg was 21%. Regarding `CO[C@@H]1[C@H](OC(=O)NC(=O)CCl)CC[C@](O)(C[S+](C)Cc2ccccc2)[C@H]1[C@@]1(C)O[C@@H]1CC=C(C)C` (some centres unmarked) [Example 16, 4-O-(N-chloroacetylcarbamoyl)-2-(1,2-epoxy-1,5-dimethyl-4-hexenyl)-3-methoxy-1-benzylmethylsulfoniomethyl-1,4-cyclohexanediol bromide], the response vs control in vivo at 30 mg/kg was found to be 20%. `C=CC(=O)NC(=O)O[C@@H]1CC[C@](O)(CCl)[C@@H]([C@@]2(C)O[C@@H]2CC=C(C)C)[C@@H]1OC` [Example 2, 4-O-(Acryloylcarbamoyl)-2-(1,2-epoxy-1,5-dimethyl-4-hexenyl)-3-methoxy-1-chloromethyl-1,4-cyclohexanediol]: the response vs control in vivo at 30 mg/kg was found to be 20%. Same read-out and setting: as for `CO[C@@H]1[C@H](OC(=O)NC(=O)CCl)CC[C@](O)(C[S+](C)C)[C@H]1[C@@]1(C)O[C@@H]1CC=C(C)C` [Example 13, 4-O-(Chloroacetylcarbamoyl)-2-(1,2-epoxy-1,5-dimethyl-4-hexenyl)-3-methoxy-1-dimethylsulfoniomethyl-1,4-cyclohexanediol iodide], the figure is 36%.
